{
  "source": "patent US20130136772A1",
  "about": "“REGULATION OF IMMUNE RESPONSE BY COLOCYNTHIN AND/OR ITS DERIVATIVES” (priority 2010, published 2013)",
  "key": {"[1]": {"test_system": "macrophage phagocytic response", "assay": "Clearance rate of carbon particles from the circulation (phagocytic index, in vivo)", "design": "species or system mice", "method": "K., Sharma, M. L., Kaul, A and Khajuria, A. (1986) Immunomodulating agents of plant origin. 1. Preliminary screening. Journal of Ethnopharmacology. 18, 133-141.] Blood samples were collected before and at intervals varying between 2 and 90 min after carbon injection. An aliquot (10 μL) of blood samples were lysed with 2mL of 0.1% acetic acid and the transparency determined spectrophotometrically at 675 nm (Uvikon 810, spectrophotometer, Kontron Ltd., Switzerland) (Hudson and Hay, 1980). AD-B-63B was administered orally for 7 days and 30 min prior to the carbon injection. The rate of carbon clearance termed as phagocytic index was calculated (Table 4)."}, "skin allograft rejection": {"test_system": "skin allograft rejection", "assay": "Skin allograft rejection time", "format": "in vivo, mice", "method": "The modified method of Billingham and Medawar (1951) [[…]] was followed to study the skin allograft rejection time in mice. Graded doses of test material AD-B-63B were administered to the animals for 7 days and graft rejection time (GRT) was recorded by daily observation of epithelial skin layer survival. […] The basic mechanism involved in increase in graft rejection time is the suppression of T lymphocytes. After transplantation, MHC peptide complexes of the foreign organ are recognized by CD4+ and CD8+ T cells of the recipient as non-self antigens. These T cells differentiate into effector T cells and stimulate an immune response. After T cells differentiate and migrate to the site, macrophages and other inflammatory agents are mediated to the site. Cytotoxic T cells (CD8+) lyse the endothelial cells on the graft, CD4+ Th1 activate macrophages and CD4+ Th2 aid in antibody production."}, "[2]": {"test_system": "humoral antibody response", "assay": "SRBC induced haemagglutination antibody titre (humoral immune response)", "format": "in vivo, mice", "settings": "for ANTIBODY TITRE MEAN ± S.E: blood on day 7", "method": "200 μl of 5×10^9 SRBC/ml was used to immunize the animals on day 0. Animals were treated with graded doses of AD-B-63B i.e., 1, 2.5, 5 and 10mg/kg p.o. for next six consecutive days. Blood samples were collected on day 7 for antibody titre assay. Haemagglutination antibody titre was determined following the microtitration technique described by Nelson and Midenhall, 1967. The value of highest serum dilution causing visible Haemagglutination was taken as titre. BSA saline alone served as control (Table 7)."}, "CD8+ T cells": {"test_system": "CD8+ T cells", "assay": "Lymphocyte immunophenotyping, CD8+ T cell population in SRBC immunised mice", "format": "in vivo, Swiss albino mice", "settings": "graded doses; most significant suppression at 5 and 10 mg/kg vs sensitized control", "description": "Immunophenotyping focuses on lymphocyte populations involved in acquired immunity. Specific molecules present on the cell surface defines characteristics of lymphocytes such as state of activation or functional capabilities. Murine monoclonal antibodies conjugated to a fluorochrome and directed against co-receptors CD4 and CD8 were used in a multi parametric flowcytometric assay to quantify the lymphocyte subsets associated with the cell-mediated immune response.\nEstimation of T cell surface markers: On day 0, mice were immunized by injecting 200 μl of 5×10^9 SRBC/ml intraperitonially. Drug administration was carried out for 6 days including the day of immunization. Same amount of SRBC was used to challenge the animals on day 7. After 24 h of challenge, blood was taken from retro-orbital plexus of animals for estimation of CD4^+ and CD8^+ T cells. 100 μl of whole blood was taken in each tube and FITC (fluorescein isothiocyanate) labelled CD4+ and PE (phycoerythrin) labelled CD8+ monoclonal antibodies were added and mixed gently. Tubes were incubated in the dark for 30 min. at room temperature. Subsequently, 2 ml of 1× FACS lysing solution was added at room temperature with gentle mixing. Samples were again incubated at room temperature for 10 min. […]"}, "IFN-γ": {"test_system": "IFN-γ", "assay": "Intracellular IFN-γ expression in SRBC immunised mice", "format": "in vivo, Swiss albino mice", "settings": "graded doses; inhibition observed at 5 and 10 mg/kg p.o.", "method": "Estimation of intracellular cytokines: The animals were immunized as mentioned above. After 6 days of drug administration, the animals were challenged on day 7. After 48 h of challenge, the blood was collected in the tubes containing EDTA (anti-coagulant) from retro-orbital plexes of animals to determine the effect of test material on the expression of intracellular IL-2 and IFN-γ (Th1) and IL-4 (Th2) cytokines. In this study, PE labeled IL-2 monoclonal antibody was used in one set and PE labeled IFN-γ and FITC labelled IL-4 monoclonal antibody was used in the other set of experimentation (FIG. 7, 8, 9)."}},
  "note": "“And” between values parts separate entries of the source, which are not always exact repeats. Equal entries are not always repeated.",
  "data": [
    {"smiles": "CC(=O)OC(C)(C)/C=C/C(=O)[C@](C)(O)[C@H]1[C@H](O)C[C@@]2(C)[C@@H]3CC=C4[C@@H](C=C(O[C@@H]5O[C@H](CO)[C@@H](O)[C@H](O)[C@H]5O)C(=O)C4(C)C)[C@]3(C)C(=O)C[C@]12C", "note": "[AD-B-63B, 2-O-β-D-glucopyranosyl cucurbitacin E]", "values": [
      {"measurement": "percent decrease in phagocytic index", "setting": "[1]; 1 mg/kg", "result": "(14.28%↓)"},
      {"measurement": "Phagocytic index [in vivo study] Mean ± S.E.", "setting": "[1]; 1 mg/kg orally for 7 days", "result": "1.08 ± 0.09"},
      {"measurement": "percent decrease in phagocytic index", "setting": "[1]; 5 mg/kg", "result": "(26.98%↓)"},
      {"measurement": "Phagocytic index [in vivo study] Mean ± S.E.", "setting": "[1]; 5 mg/kg orally for 7 days", "result": "0.92 ± 0.04"},
      {"measurement": "percent decrease in phagocytic index", "setting": "[1]; 10 mg/kg", "result": "(26.19%↓)"},
      {"measurement": "Phagocytic index [in vivo study] Mean ± S.E.", "setting": "[1]; 10 mg/kg orally for 7 days", "result": "0.93 ± 0.07"},
      {"measurement": "decrease in phagocytic index", "setting": "[1]; dose range of 1-10 mg/kg, oral for 7 days", "result": "14.28-26.19%"},
      {"measurement": "GRAFT REJECTION (Percent), delayed", "setting": "skin allograft rejection; 1 mg/kg p.o.", "result": "16.30% and 16.30↓ %"},
      {"measurement": "REJECTION TIME Mean ± S.E.", "setting": "skin allograft rejection; 1 mg/kg p.o. for 7 days", "result": "15.12 ± 0.11", "unit": "days"},
      {"measurement": "GRAFT REJECTION (Percent), delayed", "setting": "skin allograft rejection; 5 mg/kg p.o.", "result": "29.23% and 29.23↓ %"},
      {"measurement": "REJECTION TIME Mean ± S.E.", "setting": "skin allograft rejection; 5 mg/kg p.o. for 7 days", "result": "16.80 ± 0.22", "unit": "days"},
      {"measurement": "GRAFT REJECTION (Percent), delayed", "setting": "skin allograft rejection; 10 mg/kg p.o.", "result": "31.84% and 31.84↓ %"},
      {"measurement": "REJECTION TIME Mean ± S.E.", "setting": "skin allograft rejection; 10 mg/kg p.o. for 7 days", "result": "17.14 ± 0.23", "unit": "days"},
      {"measurement": "% ACTIVITY (decrease in antibody titre)", "setting": "[2]; 1 mg/kg p.o.", "result": "13.47↓ %"},
      {"measurement": "ANTIBODY TITRE MEAN ± S.E", "setting": "[2]; 1 mg/kg p.o. for six days", "result": "5.33 ± 0.45"},
      {"measurement": "% ACTIVITY (decrease in antibody titre)", "setting": "[2]; 5 mg/kg p.o.", "result": "33.11↓ %"},
      {"measurement": "ANTIBODY TITRE MEAN ± S.E", "setting": "[2]; 5 mg/kg p.o. for six days", "result": "4.12 ± 0.33"},
      {"measurement": "% ACTIVITY (decrease in antibody titre)", "setting": "[2]; 10 mg/kg p.o.", "result": "35.06↓ %"},
      {"measurement": "ANTIBODY TITRE MEAN ± S.E", "setting": "[2]; 10 mg/kg p.o. for six days", "result": "4.00 ± 0.31"},
      {"measurement": "antibody synthesis (haemagglutination antibody titre)", "setting": "[2]; significant decrease at 2.5, 5 and 10 mg/kg p.o.", "result": "inhibition of antibody synthesis"},
      {"measurement": "percentage of CD8+ T-cell population", "setting": "CD8+ T cells", "result": "decrease"},
      {"measurement": "expression of IFN-γ", "setting": "IFN-γ", "result": "decrease"}
    ]}
  ]
}
